According to publication PMC4689404, “2-Benzazolyl-4-Piperazin-1-Ylsulfonylbenzenecarbohydroxamic Acids as Novel Selective Histone Deacetylase-6 Inhibitors with Antiproliferative Activity” (PLoS ONE, 2015):
Where two headings read alike, the source gives them in different places.

Columns and labels:
[1] = tested on: epigenetically silenced GFP transgene in LDR cells; assay: locus derepression (LDR) assay, GFP induction; type: cell-based
Description: LDR cells were maintained in DMEM with L-glutamine and high glucose, 1 mM sodium pyruvate, 0.1 mM MEM non-essential amino acids, 1% v/v penicillin-streptomycin and 10% heat inactivated FBS. Cells were seeded on glass bottom chambers at low-medium density and allowed to attach overnight. Compounds were then added for 24h at the indicated dose and cells were imaged under a fluorescent microscope equipped with a camera using a 20 or 40X objective. All images shown were exposed for identical time.

[2] = target: T1, partially purified HDAC1 from mouse A20 cells (Mus musculus, UniProt O09106); assay: HDAC1 activity assay, partially purified enzyme, [3H]acetate-prelabeled histones; type: biochemical
T1 construct: from mouse A20 cells was used as enzyme source; endogenous in cells; host or cells: mouse A20 cells
T1 sequence (O09106 whole entry): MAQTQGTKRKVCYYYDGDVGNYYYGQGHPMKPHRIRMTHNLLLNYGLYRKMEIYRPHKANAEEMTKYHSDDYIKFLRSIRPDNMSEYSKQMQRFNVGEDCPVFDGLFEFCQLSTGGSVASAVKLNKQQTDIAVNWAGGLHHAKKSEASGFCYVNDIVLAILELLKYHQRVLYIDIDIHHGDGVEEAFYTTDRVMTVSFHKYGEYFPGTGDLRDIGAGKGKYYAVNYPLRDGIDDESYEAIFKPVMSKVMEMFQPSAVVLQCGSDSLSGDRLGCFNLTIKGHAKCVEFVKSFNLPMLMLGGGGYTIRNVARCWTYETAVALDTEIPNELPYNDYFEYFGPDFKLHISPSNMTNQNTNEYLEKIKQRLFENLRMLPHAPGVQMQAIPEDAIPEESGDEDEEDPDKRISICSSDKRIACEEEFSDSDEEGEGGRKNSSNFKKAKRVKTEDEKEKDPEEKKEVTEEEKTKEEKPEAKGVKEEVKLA
Excerpt: For inhibition assays, partially purified HDAC1 (70–80 fold enriched relative to crude samples) from mouse A20 cells was used as enzyme source. HDAC1 activity was purified by a combination of anion exchange chromatography (Mono Q), affinity chromatography (Poly-lysin agarose, Heparin Sepharose) and TSK size exclusion chromatography (Jesacher and Loidl, unpublished). HDAC1 protein was identified by immunoblotting using anti mouse HDAC1 antibodies (collaboration with Zymed Laboratories, Inc., San Francisco, California, USA). HDAC activity was determined as described by Sendra et al., [20] using [^3H]acetate-prelabeled chicken reticulocyte histones as substrate. 50 μL of mouse HDAC1 were incubated with different concentrations of compounds for 10 min on ice and 10 μL of total [^3H] acetate pre-labeled chicken reticulocyte histones (4 mg/mL) were added, resulting in a concentration of 41 μM. This mixture was incubated at 37°C for 1 h. The reaction was stopped by addition of 50 μL of 1 M HCl/0.4 M acetylacetate and 1 mL ethylacetate. After centrifugation at 10000 x g for 5 min an aliquot of 600 μL of the upper phase was counted for radioactivity in 3 mL liquid scintillation cocktail.

HCC4017 = assay: MTS viability assay; type: cell-based, human; details: for IC50: Homo sapiens, HCC4017, 96 h, Patient A cancer line, MTS, 4 days, read-out: Antiproliferative activity IC50, HCC4017; for Selectivity (HBEC-30KT vs HCC4017): Patient A
Description: (§1) Immortalized normal human bronchial epithelial cells (also provided by Dr. John D. Minna) were cultured in KSFM supplemented with pituitary extract and EGF. For viability assays, cells were plated on 96 well plates and grown overnight. Cells were then exposed to increasing doses of the indicated compounds for 4 days and their viability assayed using the Promega Cell Titer 96 AQueous One kit per the manufacturer’s protocol. All doses were tested in 4–8 replicates. IC50 values were calculated using the in-house software DIVISA.

HCC4018 = assay: MTS viability assay; type: cell-based, human; details: for IC50: Homo sapiens, 96 h, Patient B cancer line, MTS, 4 days, read-out: Antiproliferative activity IC50, HCC4018; for Selectivity (HBEC-34KT vs HCC4018): Patient B
Description: as §1

recombinant HDAC1 = target: T2, recombinant HDAC1 (Homo sapiens, UniProt Q13547); assay: comparative HDAC inhibition assay (Millipore fluorometric kit); type: biochemical; details: recombinant HDAC1, fluorometric substrate; Table 4
T2 construct: purchased Epigenetek
T2 sequence (Q13547 whole entry): as the sequence (O09106 whole entry) above, with K8R, E399D, D424E counted along it
Description: (§2) For the direct comparison of HDAC1 vs. HDAC6 inhibition, HDAC activity was analyzed using the HDAC Assay Kit from Millipore (17–356). Briefly, recombinant HDAC1 or recombinant HDAC6 (both purchased from Epigenetek, Purity of HDAC1 is more than 60% and purity HDAC6 is more than 85%). was incubated with the fluorometric HDAC substrate according to the manufacturer’s protocol in the presence of DMSO vehicle or increase compound doses. In a secondary activator reaction, the fluorophore is only cleaved from the deacetylated substrate, allowing for quantification. Fluorescence was quantified on a FLUOstar-Optima or a FLUOstar Omega plate reader (BMG Biosciences).

recombinant HDAC6 = target: T3, recombinant HDAC6 (Homo sapiens, UniProt Q9UBN7); assay: as above; type: biochemical
T3 construct: purchased Epigenetek
T3 sequence (Q9UBN7 1-1215): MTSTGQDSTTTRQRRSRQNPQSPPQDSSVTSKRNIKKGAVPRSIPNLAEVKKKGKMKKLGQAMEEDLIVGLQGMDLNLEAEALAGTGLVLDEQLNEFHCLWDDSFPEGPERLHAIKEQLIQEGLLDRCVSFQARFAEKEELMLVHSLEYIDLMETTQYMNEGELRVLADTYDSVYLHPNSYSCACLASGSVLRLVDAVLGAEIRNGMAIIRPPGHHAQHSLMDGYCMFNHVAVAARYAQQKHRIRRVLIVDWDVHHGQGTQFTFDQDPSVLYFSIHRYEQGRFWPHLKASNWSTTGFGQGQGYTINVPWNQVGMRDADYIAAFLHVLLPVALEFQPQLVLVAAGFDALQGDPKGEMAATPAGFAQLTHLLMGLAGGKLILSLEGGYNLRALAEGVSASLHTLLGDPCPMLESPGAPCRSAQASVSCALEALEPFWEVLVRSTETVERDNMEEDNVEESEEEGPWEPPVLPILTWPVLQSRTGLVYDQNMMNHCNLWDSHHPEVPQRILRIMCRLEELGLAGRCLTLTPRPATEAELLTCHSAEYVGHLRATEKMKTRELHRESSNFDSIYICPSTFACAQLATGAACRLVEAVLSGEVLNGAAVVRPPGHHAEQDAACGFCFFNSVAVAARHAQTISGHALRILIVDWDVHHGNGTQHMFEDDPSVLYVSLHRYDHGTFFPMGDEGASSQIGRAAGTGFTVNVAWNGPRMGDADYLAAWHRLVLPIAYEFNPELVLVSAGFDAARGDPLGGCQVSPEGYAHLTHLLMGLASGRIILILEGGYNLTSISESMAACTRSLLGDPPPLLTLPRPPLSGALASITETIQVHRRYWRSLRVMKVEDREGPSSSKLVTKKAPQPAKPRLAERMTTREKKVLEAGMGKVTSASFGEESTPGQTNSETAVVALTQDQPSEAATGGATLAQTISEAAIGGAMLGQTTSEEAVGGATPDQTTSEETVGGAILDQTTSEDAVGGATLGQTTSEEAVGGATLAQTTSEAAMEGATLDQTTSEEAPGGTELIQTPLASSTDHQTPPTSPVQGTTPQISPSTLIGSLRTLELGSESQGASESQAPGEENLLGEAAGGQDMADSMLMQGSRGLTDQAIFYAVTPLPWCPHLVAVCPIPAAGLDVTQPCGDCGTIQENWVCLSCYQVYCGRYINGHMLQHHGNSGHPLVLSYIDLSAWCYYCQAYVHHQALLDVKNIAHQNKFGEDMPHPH
Description: as §2

[3] = Table 3, partially purified HDAC1, read-out: HDAC1 IC50
[4] = Table 3, read-out: HDAC6 pIC50 (converted)
[5] = recombinant HDAC6, fluorometric substrate, Table 4, read-out: HDAC6 IC50

IC50 [2, 3] [nM] | IC50 (HCC4017) [nM] | IC50 (HCC4018) [nM] | IC50 (recombinant HDAC1) [nM] | IC50 (recombinant HDAC6; [4]) [nM] | Selectivity Index HDAC1/HDAC6 (recombinant HDAC6; Table 4) | IC50 (recombinant HDAC6; [5]) [nM] | IC50 ([2]; partially purified HDAC1 from mouse A20 cells, Fig 4 and text, read-out: HDAC1 Inhibit (IC50)) [nM] | SMILES | GFP induction / activity in the LDR assay [1] | Selectivity (HBEC-30KT vs HCC4017) (HCC4017) | Selectivity (HBEC-34KT vs HCC4018) (HCC4018) | activation of the silenced GFP gene (GFP expression) ([1]; compound at 20μM, fluorescence microscopy)
5700 | 1240 | 5050 | 920 ± 160 | 200 | 4.3 | 220 ± 40 | – | O=C(NO)c1ccc(S(=O)(=O)N2CCN(c3nc4ccccc4o3)CC2)cc1 [Compound 9c, 4-(4-Benzoxazol-2-yl-piperazin-1-sulfonyl)-N -hydroxy-benzamid] | high level of GFP induction | > 8.06 | > 1.98 | –
12400 | 1490 | 6100 | 3700 ± 1700 | 100 | 28.4 | 130 ± 70 | ~12000 | Cn1c(N2CCN(S(=O)(=O)c3ccc(C(=O)NO)cc3)CC2)nc2ccccc21 [Compound 9b, 4-[4-(1-methylbenzimidazol-2-yl)piperazin-1-yl]sulfonylbenzenecarbohydroxamic acid] | – | > 6.71 | > 1.64 | robust GFP expression
4800 | 1630 | 4000 | 900 ± 450 | 100 | – | 130 ± 20 | – | O=C(NO)c1ccc(S(=O)(=O)N2CCN(c3nc4ccccc4s3)CC2)cc1 [Compound 9d, 4-(4-Benzothiazol-2-yl-piperazin-1-sulfonyl)-N -hydroxy-benzamid] | high level of GFP induction | 3.29 | 2.06 | –
